In patent EP0677522A1, “8-METHOXYQUINOLONECARBOXYLIC ACID DERIVATIVE” (priority 1992, dated 1994):
≈ marks a conversion by molar mass, not a printed value.

Assays:
male ICR mice = test: Preliminary micronucleus test; format: in vivo; details: for Emergence of micronucleus in polychromatic cells compared with the control group: after 24 hours, Example 5: in the dose of 1,000 mg/kg or above
Description: A preliminary micronucleus test was performed by oral administration to male ICR mice. […]

[1] = tested on: Streptococcus pyogenes C-203; test: In vitro antibacterial activity (MIC), Japan Society of Chemotherapy Standard; format: cell-based; details: C203, inoculated cells 10⁶ cells/ml, medium supplemented with 10% horse blood
Description: (§1) The in vitro antibacterial activity (minimum inhibitory concentration, MIC, µg/ml) of the test compounds was determined according to Japan Society of Chemotherapy Standard [Chemotherapy, vol. 29, pp 76-79 (1981)].
(§2) Inoculated cells were 10⁶ cells/ml and the strain with * was incubated in a medium supplemented with 10% horse blood. The mark "1)" means quinolone resistant MRSA and "2)" means quinolone resistant bacteria.

[2] = tested on: Staphylococcus aureus FDA 209P; test: as above; format: cell-based; details: FDA209P, inoculated cells 10⁶ cells/ml
Description: as §1, §2

[3] = tested on: Escherichia coli NIHJ JC-2; test: as above; format: cell-based; details: NIHJJC2, inoculated cells 10⁶ cells/ml
Description: as §1, §2

[4] = tested on: Enterobacter cloacae IFO 12937; test: as above; format: cell-based; details: IFO12937, inoculated cells 10⁶ cells/ml
Description: as §1, §2

S. pneumoniae Type-III = test: as above; format: cell-based; details: Streptococcus pneumoniae; inoculated cells 10⁶ cells/ml; medium supplemented with 10% horse blood
Description: as §1, §2

M.catarrhalis ATCC 25238 = test: as above; format: cell-based; details: Moraxella catarrhalis, ATCC25238; inoculated cells 10⁶ cells/ml; medium supplemented with 10% horse blood
Description: as §1, §2

[5] = tested on: Serratia marcescens IFO 12648; test: as above; format: cell-based; details: IFO12648, inoculated cells 10⁶ cells/ml
Description: as §1, §2

E. faecium EFMY-28 = test: as above; format: cell-based; details: Enterococcus faecium, EFMY28; inoculated cells 10⁶ cells/ml
Description: as §1, §2

[6] = tested on: Citrobacter freundii IFO 12681; test: as above; format: cell-based; details: IFO12681, inoculated cells 10⁶ cells/ml
Description: as §1, §2

S. aureus No.88 = test: as above; format: cell-based; details: Staphylococcus aureus; quinolone resistant MRSA; inoculated cells 10⁶ cells/ml
Description: as §1, §2

[7] = tested on: Enterococcus faecalis LS-101; test: as above; format: cell-based; details: LS101, inoculated cells 10⁶ cells/ml
Description: as §1, §2

[8] = tested on: A.calcoaceticus IFO 13006; test: as above; format: cell-based; details: Acinetobacter calcoaceticus, IFO13006; inoculated cells 10⁶ cells/ml
Description: as §1, §2

Shigella flexneri EW-10 = test: as above; format: cell-based; details: EW10, inoculated cells 10⁶ cells/ml
Description: as §1, §2

[9] = tested on: S. epidermidis ATCC 12228; test: as above; format: cell-based; details: Staphylococcus epidermidis, ATCC12228; inoculated cells 10⁶ cells/ml
Description: as §1, §2

[10] = tested on: Proteus vulgaris IFO 3988; test: as above; format: cell-based; details: IFO3988, inoculated cells 10⁶ cells/ml
Description: as §1, §2

P. mirabilis IFO 3849 = test: as above; format: cell-based; details: Proteus mirabilis, IFO3849; inoculated cells 10⁶ cells/ml
Description: as §1, §2

K.pneumoniae DT-S = test: as above; format: cell-based; details: Klebsiella pneumoniae; inoculated cells 10⁶ cells/ml
Description: as §1, §2

E. avium EAY-30 = test: as above; format: cell-based; details: Enterococcus avium, EAY30, inoculated cells 10⁶ cells/ml
Description: as §1, §2

L.monocytogenes VTU-206 = test: as above; format: cell-based; details: Listeria monocytogenes, VTU206; inoculated cells 10⁶ cells/ml; medium supplemented with 10% horse blood
Description: as §1, §2

P.aeruginosa U-31 = test: as above; format: cell-based; details: Pseudomonas aeruginosa, U31; inoculated cells 10⁶ cells/ml
Description: as §1, §2

S. aureus Smith [11] = test: Protection of mice from experimental infection; format: in vivo; details: male mice; intraperitoneal inoculation 2.8×10⁶ cells/mouse (123×LD₅₀); oral administration one hour after inoculation; survival ratio at 7 days, probit method
Description: (§3) Experimental infection was caused by intraperitoneal inoculation of respective bacteria to male mice. One hour after the inoculation, a test compound was orally administered to the mice. The therapeutic effect of each test compound was evaluated by reference to the 50% effective dose (ED₅₀) which was based on the survival ratio at 7 days after the administration according to the probit method [Proc. Soc. Exp. Med., Vol. 57, p 261-264 (1944)]. The minimum inhibitory concentration (MIC) of the infectious bacteria used was also determined. […]

E. coli KC-14 [12] = test: Protection of mice from experimental infection; format: in vivo; details: Table 3-1: male mice; intraperitoneal inoculation 5.0×10⁶ cells/mouse (744×LD₅₀); oral administration one hour after inoculation; survival ratio at 7 days
Description: as §3

S. aureus MRSA Y-238 [13] = test: Protection of mice from experimental infection; format: in vivo; details: Table 3-1: male mice; intraperitoneal inoculation 7.5×10⁶ cells/mouse (185×LD₅₀); oral administration one hour after inoculation; survival ratio at 7 days
Description: as §3

S. aureus Smith [14] = test: MIC of the infectious bacteria used for experimental infection; format: cell-based; details: Staphylococcus aureus; infectious strain of the mouse protection test
Description: as §1, §3

E. coli KC-14 [15] = test: as above; format: cell-based; details: Escherichia coli, KC14; infectious strain of the mouse protection test
Description: as §1, §3

S. aureus MRSA Y-238 [16] = test: as above; format: cell-based; details: Staphylococcus aureus, infectious strain of the mouse protection test
Description: as §1, §3

[17] = tested on: Ureaplasma urealyticum ATCC 27618; test: Antibacterial effect against specific bacteria (MIC); format: cell-based; details: ATCC27618, same manner as Experimental Example 1
Description: as §1
(§4) In the same manner as in Experimental Example 1, the antibacterial effect against specific bacteria such as Chlamydia, Mycoplasma and acid-fast bacteria and anaerobic bacteria was determined.

[18] = tested on: Mycobacterium smegmatis IFO 13167; test: as above; format: cell-based; details: Mycolicibacterium smegmatis, IFO13167; same manner as Experimental Example 1
Description: as §1, §4

[19] = tested on: Chlamydia trachomatis D/UW-3Cx; test: as above; format: cell-based; details: same manner as Experimental Example 1
Description: as §1, §4

[20] = tested on: Mycoplasma pneumoniae ATCC 29343; test: as above; format: cell-based; details: ATCC29343, same manner as Experimental Example 1
Description: as §1, §4

[21] = tested on: Bacteroides fragilis GAI 5560; test: as above; format: cell-based; details: GAI5560, same manner as Experimental Example 1
Description: as §1, §4

Structure (SMILES) | MIC [1] [µg/mL] | MIC [2] [µg/mL] | MIC [3] [µg/mL] | MIC [4] [µg/mL] | MIC (S. pneumoniae Type-III) [µg/mL] | MIC (M.catarrhalis ATCC 25238) [µg/mL] | MIC [5] [µg/mL] | MIC (E. faecium EFMY-28) [µg/mL] | MIC [6] [µg/mL] | MIC (S. aureus No.88) [µg/mL] | MIC [7] [µg/mL] | MIC [8] [µg/mL] | MIC (Shigella flexneri EW-10) [µg/mL] | MIC [9] [µg/mL] | MIC [10] [µg/mL] | MIC (P. mirabilis IFO 3849) [µg/mL] | MIC (K.pneumoniae DT-S) [µg/mL] | MIC (E. avium EAY-30) [µg/mL] | MIC (L.monocytogenes VTU-206) [µg/mL] | MIC (P.aeruginosa U-31) [µg/mL] | also measured
COc1c(N2CC[C@](N)(CF)C2)c(F)cc2c(=O)c(C(=O)O)cn(C3CC3)c12 [Example 5, (R)-7-(3-amino-3-fluoromethylpyrrolidin-1-yl)-1-cyclopropyl-6-fluoro-1,4-dihydro-8-methoxy-4-oxo-3-quinolinecarboxylic acid] | 0.05 (≈ 0.127 µM) | ≤ 0.006 | 0.025 (≈ 0.0636 µM) | 0.2 (≈ 0.508 µM) | 0.012 (≈ 0.0305 µM) | 0.012 (≈ 0.0305 µM) | 0.2 (≈ 0.508 µM) | 0.1 (≈ 0.254 µM) | 0.05 (≈ 0.127 µM) | 0.78 (≈ 1.98 µM) | 0.012 (≈ 0.0305 µM) | 0.025 (≈ 0.0636 µM) | 0.012 (≈ 0.0305 µM) | 0.012 (≈ 0.0305 µM) | 0.39 (≈ 0.991 µM) | 0.2 (≈ 0.508 µM) | 0.05 (≈ 0.127 µM) | 0.1 (≈ 0.254 µM) | 0.1 (≈ 0.254 µM) | 0.39 (≈ 0.991 µM) | Emergence of micronucleus in polychromatic cells compared with the control group (male ICR mice; oral): showed significant increase in emergence frequency of micronucleus; Emergence of micronucleus (%) (male ICR mice; oral, dose 500 mg/kg): 0.45±0.28 %; Emergence of micronucleus (%) (male ICR mice; oral, dose 1000 mg/kg): 1.45±1.45 %; Emergence of micronucleus (%) (male ICR mice; oral, dose 2000 mg/kg): 2.38±0.85 %
COc1c(N2CCC(N)(CN)CC2)c(F)cc2c(=O)c(C(=O)O)cn(C3CC3)c12 [Comp. Ex. 1, 7-(4-amino-4-aminomethylpiperidin-1-yl)-1-cyclopropyl-6-fluoro-1,4-dihydro-8-methoxy-4-oxo-3-quinolinecarboxylic acid, reference compound] |  | 0.1 (≈ 0.247 µM) | 1.56 (≈ 3.86 µM) | 12.5 (≈ 30.9 µM) |  |  | 6.25 (≈ 15.5 µM) |  |  |  | 1.56 (≈ 3.86 µM) |  | 0.39 (≈ 0.964 µM) | 0.78 (≈ 1.93 µM) | 25 (≈ 61.8 µM) | 25 (≈ 61.8 µM) | 6.25 (≈ 15.5 µM) |  |  | 12.5 (≈ 30.9 µM) | 
CO[C@@]12[C@H](COC(N)=O)C3=C(C(=O)C(C)=C(N)C3=O)N1C[C@@H]1N[C@@H]12 [MMC, mitomycin C, reference compound] |  |  |  |  |  |  |  |  |  |  |  |  |  |  |  |  |  |  |  |  | Emergence of micronucleus (%) (male ICR mice; dose 1 mg/kg (positive control)): 2.36±1.52 %
COc1c(N2CCC(N)(CF)C2)c(F)cc2c(=O)c(C(=O)O)cn(C3CC3)c12 (stereo not shown) [Example 1, 7-(3-amino-3-fluoromethylpyrrolidin-1-yl)-1-cyclopropyl-6-fluoro-1,4-dihydro-8-methoxy-4-oxo-3-quinolinecarboxylic acid] | 0.05 (≈ 0.127 µM) | ≤ 0.006 | 0.025 (≈ 0.0636 µM) | 0.2 (≈ 0.508 µM) | 0.012 (≈ 0.0305 µM) | 0.012 (≈ 0.0305 µM) | 0.2 (≈ 0.508 µM) | 0.2 (≈ 0.508 µM) | 0.05 (≈ 0.127 µM) | 0.39 (≈ 0.991 µM) | 0.012 (≈ 0.0305 µM) | 0.05 (≈ 0.127 µM) | ≤ 0.006 | 0.012 (≈ 0.0305 µM) | 0.2 (≈ 0.508 µM) | 0.39 (≈ 0.991 µM) | 0.025 (≈ 0.0636 µM) | 0.1 (≈ 0.254 µM) | 0.1 (≈ 0.254 µM) | 0.39 (≈ 0.991 µM) | 
COc1c(N2CC[C@@](N)(CF)C2)c(F)cc2c(=O)c(C(=O)O)cn(C3CC3)c12 [Example 6, (S)-7-(3-amino-3-fluoromethylpyrrolidin-1-yl)-1-cyclopropyl-6-fluoro-1,4-dihydro-8-methoxy-4-oxo-3-quinoline carboxylic acid] | 0.05 (≈ 0.127 µM) | ≤ 0.006 | 0.025 (≈ 0.0636 µM) | 0.2 (≈ 0.508 µM) | 0.025 (≈ 0.0636 µM) | 0.012 (≈ 0.0305 µM) | 0.2 (≈ 0.508 µM) | 0.2 (≈ 0.508 µM) | 0.1 (≈ 0.254 µM) | 0.39 (≈ 0.991 µM) | 0.012 (≈ 0.0305 µM) | 0.025 (≈ 0.0636 µM) | 0.012 (≈ 0.0305 µM) | ≤ 0.006 | 0.39 (≈ 0.991 µM) | 0.2 (≈ 0.508 µM) | 0.05 (≈ 0.127 µM) | 0.1 (≈ 0.254 µM) | 0.1 (≈ 0.254 µM) | 0.39 (≈ 0.991 µM) | Emergence of micronucleus in polychromatic cells compared with the control group (male ICR mice; oral): did not show significant difference in emergence of micronucleus; Emergence of micronucleus (%) (male ICR mice; oral, dose 500 mg/kg): 0.16±0.16%; Emergence of micronucleus (%) (male ICR mice; oral, dose 1000 mg/kg): 0.16±0.11%; Emergence of micronucleus (%) (male ICR mice; oral, dose 2000 mg/kg): 0.26±0.04%; ED₅₀ (mg/mouse) (95% confidence limit) (S. aureus Smith [11]): 0.036(0.025-0.052) mg/mouse; ED₅₀ (mg/mouse) (95% confidence limit) (E. coli KC-14 [12]): 0.011(0.008-0.015) mg/mouse; ED₅₀ (mg/mouse) (95% confidence limit) (S. aureus MRSA Y-238 [13]): 1.54(1.103-2.151) mg/mouse; MIC (S. aureus Smith [14]): ≤ 0.006 µg/mL; MIC (E. coli KC-14 [15]): 0.012 µg/mL; MIC (S. aureus MRSA Y-238 [16]): 0.39 µg/mL; MIC [17]: 0.1 µg/mL (≈ 0.254 µM); MIC [18]: 0.1 µg/mL (≈ 0.254 µM); MIC [19]: 0.012 µg/mL (≈ 0.0305 µM); MIC [20]: 0.025 µg/mL (≈ 0.0636 µM); MIC [21]: 0.05 µg/mL (≈ 0.127 µM)
